Reference: ChEMBL document CHEMBL1201862, “PubChem BioAssay data set” (2004)
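All cell lines were grown in 96-well plates and treated with compound for 48 hours. GI50 marks 50% less growth.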 Activity calls are given as the source filed them. No stated cut-off is given here; in the data, active = GI50 up to about 1.1 µM and inactive = higher.

Key:
Experiment in all cases: NCI tumour cell line growth inhibition, 48 h
786-0 = tested on: 786-0
ACHN = tested on: ACHN
BT-549 = tested on: BT-549
EKVX = tested on: EKVX
HCC 2998 = tested on: HCC 2998
HCT-116 = tested on: HCT-116
HCT-15 = tested on: HCT-15
HT-29 = tested on: HT-29
Hs-578T = tested on: Hs-578T
KM12 = tested on: KM12
MDA-MB-435 = tested on: MDA-MB-435
Malme-3M = tested on: Malme-3M
PC-3 = tested on: PC-3
RXF 393 = tested on: RXF 393
SF-268 = tested on: SF-268
SF-539 = tested on: SF-539
SW-620 = tested on: SW-620
T47D = tested on: T47D
UACC-62 = tested on: UACC-62
UO-31 = tested on: UO-31

SMILES | GI50 (786-0) | GI50 (ACHN) | GI50 (BT-549) | GI50 (EKVX) | GI50 (HCC 2998) | GI50 (HCT-116) | GI50 (HCT-15) [µM] | GI50 (HT-29) | GI50 (Hs-578T) | GI50 (KM12) | GI50 (MDA-MB-435) | GI50 (Malme-3M) | GI50 (PC-3) | GI50 (RXF 393) | GI50 (SF-268) | GI50 (SF-539) | GI50 (SW-620) | GI50 (T47D) | GI50 (UACC-62) | GI50 (UO-31)
COc1cc(I)c2c3c1OC1C34CCN(C)C(C2)C4=CC(I)C1(OC)OC (stereo not given) | 20.3 µM (inactive) | 27 µM (inactive) | 23.9 µM (inactive) | 29.6 µM (inactive) | 15.3 µM (inactive) | 23.4 µM (inactive) | 25.5 | 26.5 µM (inactive) | 53.2 µM (inactive) | 17.5 µM (inactive) | 13.2 µM (inactive) | 20.7 µM (inactive) | 24.4 µM (inactive) | 16.3 µM (inactive) | 25.6 µM (inactive) | 18.1 µM (inactive) | 19 µM (inactive) | 14.6 µM (inactive) | 19.2 µM (inactive) | 18.4 µM (inactive)
CCc1nc(Cl)nc(Cl)c1Cl | 0.415 µM (active) | 0.34 µM (active) | 2.01 µM (inactive) | 11.4 µM (inactive) | 0.706 µM (active) | 0.948 µM (active) | 0.318 | 0.394 µM (active) | 2.6 µM (inactive) | 3.48 µM (inactive) | 1.06 µM (active) | 0.445 µM (active) | 1.26 µM (inactive) | 1.74 µM (inactive) | 0.54 µM (active) | 3.36 µM (inactive) | 0.467 µM (active) | 5.55 µM (inactive) | 6.44 µM (inactive) | 0.276 µM (active)
CC(=O)OC1/C(=C/c2ccc([N+](=O)[O-])cc2)C[C@H]2[C@@H]3CC=C4C[C@@H](OC(C)=O)CC[C@]4(C)[C@H]3CC[C@]12C (stereo not given in full) | 70.6 µM (inactive) | 99.8 µM (inactive) | > 100 µM (inactive) | > 85.7 µM (inactive) | > 100 µM (inactive) | > 100 µM (inactive) | > 100 | > 100 µM (inactive) | 74.5 µM (inactive) | > 100 µM (inactive) | > 100 µM (inactive) | > 100 µM (inactive) | > 100 µM (inactive) | 20 µM (inactive) | 51.4 µM (inactive) | 59.6 µM (inactive) | > 100 µM (inactive) | > 100 µM (inactive) | > 100 µM (inactive) | > 100 µM (inactive)
